Experimental data: patent US10905738B2, “Synthetic peptides, prodrugs, pharmaceutical compositions and uses” (Biozeus Desenvolvimento De Produtos Biofarmacêuticos, priority 2018, dated 2021)

What was measured:
[1] = test system: smooth muscle of tracheal rings; assay: spasmodic contraction of tracheal rings ex vivo (histamine-induced); design: species or system Dunkin-Hartley guinea pigs; settings: mean±SEM
Procedure: The magnitude of the relaxing effect of the peptides was evaluated by means of a model of spasmodic contraction of tracheal rings ex vivo, largely employed to test new bronchodilating agents (see CULLUM, V. A., FARMER, J. B., JACK, D., LEVY, G. P. Salbutamol: a new, selective β-adrenoceptive receptor stimulant. British journal of pharmacology, 35(1): 141-151. 1969; KAO, C. H., CHU, Y. H., WANG, H. W. Effects of lidocaine on rat's isolated tracheal smooth muscle. European Archives of Oto-Rhino-Laryngology, 267(5): 817-820. 2010; SORIANO-URSÚA, M. A., VALENCIA-HERNÁNDEZ, I., ARELLANO-MENDOZA, M. G., CORREA-BASURTO, J., TRUJILLO-FERRARA, J. G. Synthesis, pharmacological and in silico evaluation of 1-(4-dihydroxy-3, 5-dioxa-4-borabycyclo [4.4.0] deca-7,9,11-trien-9-yl)-2-(tert-butylamine) ethanol, a compound designed to act as a β2 adrenoceptor agonist. European journal of medicinal chemistry, 44(7): 2840-2846. 2009).
For each test, Dunkin-Hartley guinea pigs (400-500 g) were euthanized in a CO2 atmosphere; subsequently, the trachea was exposed, removed and sectioned in segments of 1 to 3 cartilaginous tracheal rings. Each segment was transferred to an individual organ bath system containing Krebs nutritive solution (NaCl 118 mM; KCl […]; CaCl2) 2.5 mM; MgSO4 1.2 mM; KH2PO4 1.2 mM; NaHCO324 mM; glucose 11 mM) at 37° C., under constant aeration with a carbogenic mixture (95% of O2 and 5% of CO2). In each system, a stem fixed to the base of the container and another connected to an isometric transducer (GRASS FT-03) made up the support of the fragments. A data digitizing system connected to the isometric transducer allowed the recording of tension variations produced by the contraction of the tracheal rings (PowerLab™ 16/30, LabChart, version 8.1, AD Instruments, Australia). The basal tension was adjusted to 1 g, and subsequently, the contractility of the fragments was evaluated by a stimulus with carbachol (2.5 μM). After 1 h at rest, the basal tension was recovered and the tissues were subjected to contraction induced by histamine (50 μM) followed by exposure to increasing concentrations of the treatments (0.01 to 10 μM; n=8) or the comparator PnTx(19).
Table 1 lists the mean±SEM of the potency values, shown as the negative logarithm of the concentration that reduced the voltage to 50% of the maximum Histamine-induced contraction (pEC50), and efficacy (Emax), calculated from at least 8 independent tests using the sigmoid nonlinear regression equation of the software Graph Prism 5.0 (GraphPad Software, La Jolla, Ca, USA).

cavernosal strips = assay: relaxation induced by electric stimuli in cavernosal strips pre-contracted with phenylephrine ex vivo; design: species or system rats of Sprague Dawley (SD) lineage; settings: peptides 10^−10 M; 10^−8 M; 10^−6 M; FIG. 3
Procedure: The relaxing potential of the peptides of the present invention on the smooth muscles of cavernous strips was evaluated ex vivo using tissue isolated from rats, a model that is largely used to test drug candidates for the treatment of ED (ITALIANO, G., CALABRÒ, A., PAGANO, F. A simplified in vitro preparation of the corpus cavernosum as a tool for investigating erectile pharmacology in the rat. Pharmacological research, 30(4): 325-334. 1994; GEMALMAZ, H., WALDECK, K., CHAPMAN, T. N., TUTTLE, J. B., STEERS, W. D., ANDERSSON, K E. In vivo and in vitro investigation of the effects of sildenafil on rat cavernous smooth muscle. The Journal of Urology, 165(3): 1010-1014.2001).
Male rats of Sprague Dawley (SD) lineage were sacrificed by guillotine; the penises were removed surgically and placed on a Petri dish containing Krebs—bicarbonate solution (NaCl 118.1 mM; KCl 4.7 mM; KH2PO4 1.0 mM; MgSO4 1.0 mM; NaHCO3 25.0 mM; CaCl2) 2.5 mM and Glucose 11.1 mM). The corpus cavernosum were dissected by removing the glans, urethra, spongeous body and dorsal vein, and then separated by cutting the fibrous septum between them. Cavernosal strips measuring 2×2×7 mm were mounted separately in a bath for isolated organs containing bicarbonate solution-Krebs (pH 7.4) at 37° C., aerated with 95% of O02 and 5% of CO2. The tissue was connected to a tension transducer and the changes in tension were continuously registered. The cavernosal strips were contracted with phenylephrine (10^−5 M) and subsequently relaxed by electrical stimulation at different frequencies (1 to 32 Hz). […] Differences in the percentage of relaxation between treatment and control were evaluated with regard to statistical significance by means of two-way variance analysis (Two-Way ANOVA) followed by Bonferroni post-test. For the comparison between the treatments and control in light of the stimulation in a single frequency, the results were evaluated by one-way analysis variance (One-Way ANOVA) followed by Bonferroni post-test. […]

RQYFWIAWYKLANSK [SEQ ID NO: 5, Ac-Arg-Gln-Tyr-Phe-Trp-Ile-Ala-Trp-Tyr-Lys-Leu-Ala-Asn-Ser-Lys-NH2]
Effectiveness (Emax) (%) ([1]; relaxation of tracheal rings contracted by histamine (50 μM)): Inactive | Potency (pEC50) Molar ([1]; tracheal rings contracted by histamine (50 μM), peptides 0.01 to 10 μM): Inactive | enhancing effect on relaxation induced by electric stimuli in strips of cavernous body contracted by phenylephrine (cavernosal strips): enhancing effect
